Source: publication PMC5218480 (PLoS ONE, 2017)

System: MV-4-11 cells
Assay: Gene expression microarray analysis (Affymetrix PrimeView) and GSEA
Format: cell-based, human
Set-up: RFU PODN (11730768_x_at) / Fold change /veh PODN (11730768_x_at) / RFU LINC00158 (11744669_a_at) / Fold change /veh LINC00158 (11744669_a_at) / RFU DUSP10 (11751237_a_at) / Fold change /veh DUSP10 (11751237_a_at) / RFU ID3 (11757404_x_at) / Fold change /veh ID3 (11757404_x_at) / RFU PLEKHG5 (11737974_s_at) / Fold change /veh PLEKHG5 (11737974_s_at) / RFU LRRC4B (11730491_at) / Fold change /veh LRRC4B (11730491_at) / RFU GIMAP4 (11747438_a_at) / Fold change /veh GIMAP4 (11747438_a_at) / RFU KRT8 (11758183_x_at) / Fold change /veh KRT8 (11758183_x_at) / RFU CNN1 (11734310_a_at) / Fold change /veh CNN1 (11734310_a_at) / RFU VPS37D (11726825_at) / Fold change /veh VPS37D (11726825_at) / RFU C10orf10 (11716522_x_at) / Fold change /veh C10orf10 (11716522_x_at) / RFU KIR2DL2 /// KIR2DL4 /// KIR2DL5A /// KIR2DL5B /// KIR2DS1 /// KIR2DS2 /// KIR2DS3 /// KIR2DS4 /// KIR3DL3 /// KIR3DL3 /// KIR3DS1 (11738374_at) / Fold change /veh KIR2DL2 /// KIR2DL4 /// KIR2DL5A /// KIR2DL5B /// KIR2DS1 /// KIR2DS2 /// KIR2DS3 /// KIR2DS4 /// KIR3DL3 /// KIR3DL3 /// KIR3DS1 (11738374_at) / RFU C1QL1 (11718748_at) / Fold change /veh C1QL1 (11718748_at) / RFU TMPRSS4 (11747572_a_at) / Fold change /veh TMPRSS4 (11747572_a_at) / RFU HAMP (11756126_x_at) / Fold change /veh HAMP (11756126_x_at) / RFU RNFT2 (11725882_a_at) / Fold change /veh RNFT2 (11725882_a_at) / RFU NR4A2 (11747474_a_at) / Fold change /veh NR4A2 (11747474_a_at) / RFU ABCC12 (11746883_a_at) / Fold change /veh ABCC12 (11746883_a_at) / RFU TMEM136 (11760407_x_at) / Fold change /veh TMEM136 (11760407_x_at) / RFU CLDN22 /// WWC2 (11732394_at) / Fold change /veh CLDN22 /// WWC2 (11732394_at) / RFU HLA-DPB1 (11760878_x_at) / Fold change /veh HLA-DPB1 (11760878_x_at) / RFU SPINT1 (11716480_a_at) / Fold change /veh SPINT1 (11716480_a_at) / RFU GAP43 (11754022_s_at) / Fold change /veh GAP43 (11754022_s_at) / RFU A4GNT (11735810_at) / Fold change /veh A4GNT (11735810_at) / RFU PRB3 (11715151_x_at) / Fold change /veh PRB3 (11715151_x_at) / RFU TUBB4B (11761932_at) / Fold change /veh TUBB4B (11761932_at) / RFU CAPN14 (11732068_a_at) / Fold change /veh CAPN14 (11732068_a_at) / RFU TMCC2 (11721928_a_at) / Fold change /veh TMCC2 (11721928_a_at) / RFU IRGQ (11745062_a_at) / Fold change /veh IRGQ (11745062_a_at) / RFU FAM174B (11720279_a_at) / Fold change /veh FAM174B (11720279_a_at) / RFU TMPRSS4 (11748680_a_at) / Fold change /veh TMPRSS4 (11748680_a_at) / RFU FAM212B (11763350_a_at) / Fold change /veh FAM212B (11763350_a_at) / RFU PLEKHG5 (11743358_a_at) / Fold change /veh PLEKHG5 (11743358_a_at) / RFU ZSCAN30 (11745921_a_at) / Fold change /veh ZSCAN30 (11745921_a_at) / RFU CMKLR1 (11741424_a_at) / Fold change /veh CMKLR1 (11741424_a_at) / RFU LOC101060620 /// MAPK8IP1 (11723275_at) / Fold change /veh LOC101060620 /// MAPK8IP1 (11723275_at) / RFU SPTSSB (11747773_x_at) / Fold change /veh SPTSSB (11747773_x_at) / RFU PRSS12 (11739890_at) / Fold change /veh PRSS12 (11739890_at) / RFU BIN1 (11741810_x_at) / Fold change /veh BIN1 (11741810_x_at) / RFU WNT11 (11732464_a_at) / Fold change /veh WNT11 (11732464_a_at) / RFU C10orf10 (11716521_a_at) / Fold change /veh C10orf10 (11716521_a_at) / RFU C5orf56 (11738089_at) / Fold change /veh C5orf56 (11738089_at) / RFU CYB561 (11721691_x_at) / Fold change /veh CYB561 (11721691_x_at) / RFU ANKRD19P (11752326_a_at) / Fold change /veh ANKRD19P (11752326_a_at) / RFU OR2T12 /// OR2T33 /// OR2T8 (11738714_s_at) / Fold change /veh OR2T12 /// OR2T33 /// OR2T8 (11738714_s_at) / RFU VCAN (11748164_a_at) / Fold change /veh VCAN (11748164_a_at) / RFU JSRP1 (11732532_at) / Fold change /veh JSRP1 (11732532_at) / RFU KRTAP10-11 (11738290_x_at) / Fold change /veh KRTAP10-11 (11738290_x_at) / RFU MYO3A (11730013_a_at) / Fold change /veh MYO3A (11730013_a_at) / RFU EBF3 (11725865_a_at) / Fold change /veh EBF3 (11725865_a_at) / RFU CAMK2N1 (11719241_x_at) / Fold change /veh CAMK2N1 (11719241_x_at) / RFU C5orf56 (11738088_a_at) / Fold change /veh C5orf56 (11738088_a_at) / RFU OLFML3 (11715873_a_at) / Fold change /veh OLFML3 (11715873_a_at) / RFU LOC100653217 /// NTM (11731650_a_at) / Fold change /veh LOC100653217 /// NTM (11731650_a_at) / RFU MAPK11 (11762145_a_at) / Fold change /veh MAPK11 (11762145_a_at) / RFU FIZ1 (11724087_x_at) / Fold change /veh FIZ1 (11724087_x_at) / RFU OASL (11726364_x_at) / Fold change /veh OASL (11726364_x_at) / RFU SOX15 (11748057_x_at) / Fold change /veh SOX15 (11748057_x_at) / RFU CD79A (11719716_a_at) / Fold change /veh CD79A (11719716_a_at) / RFU HIST1H1D (11736915_at) / Fold change /veh HIST1H1D (11736915_at) / RFU CASKIN2 (11723855_a_at) / Fold change /veh CASKIN2 (11723855_a_at) / RFU LOC730098 (11760151_x_at) / Fold change /veh LOC730098 (11760151_x_at) / RFU OR4N2 (11742367_at) / Fold change /veh OR4N2 (11742367_at) / RFU PRRT2 (11749266_a_at) / Fold change /veh PRRT2 (11749266_a_at) / RFU SNX32 (11753110_a_at) / Fold change /veh SNX32 (11753110_a_at) / RFU CDHR5 (11726645_a_at) / Fold change /veh CDHR5 (11726645_a_at) / RFU RCAN1 (11760418_a_at) / Fold change /veh RCAN1 (11760418_a_at) / RFU FAM167A (11723789_a_at) / Fold change /veh FAM167A (11723789_a_at) / RFU FAM26E (11764081_at) / Fold change /veh FAM26E (11764081_at) / RFU ISYNA1 (11749810_s_at) / Fold change /veh ISYNA1 (11749810_s_at) / RFU ACY1 (11761880_at) / Fold change /veh ACY1 (11761880_at) / RFU 11764098_at / Fold change /veh 11764098_at / RFU SAMD14 (11745864_x_at) / Fold change /veh SAMD14 (11745864_x_at) / RFU NPB (11741838_a_at) / Fold change /veh NPB (11741838_a_at) / RFU TMPRSS6 (11731388_a_at) / Fold change /veh TMPRSS6 (11731388_a_at) / RFU KRTAP10-2 (11738614_at) / Fold change /veh KRTAP10-2 (11738614_at) / RFU ARHGAP8 /// PRR5-ARHGAP8 (11727945_x_at) / Fold change /veh ARHGAP8 /// PRR5-ARHGAP8 (11727945_x_at) / RFU KRTAP5-7 /// NADSYN1 (11734609_at) / Fold change /veh KRTAP5-7 /// NADSYN1 (11734609_at) / RFU RASL12 (11751679_a_at) / Fold change /veh RASL12 (11751679_a_at) / RFU CDKN2B (11736163_a_at) / Fold change /veh CDKN2B (11736163_a_at) / RFU PRF1 (11729649_at) / Fold change /veh PRF1 (11729649_at) / RFU, ZNF638 /// ZNF638-IT1 / Fold change vs veh, ZNF638 /// ZNF638-IT1 / RFU, PANK3 / Fold change vs veh, PANK3 / RFU, SH3YL1 / Fold change vs veh, SH3YL1 / RFU, ZEB2 / Fold change vs veh, ZEB2 / RFU, NRIP1 / Fold change vs veh, NRIP1 / RFU, PTTG1IP / Fold change vs veh, PTTG1IP / RFU, CAPN2 / Fold change vs veh, CAPN2 / RFU, MED14 / Fold change vs veh, MED14 / RFU, SNORA58 / Fold change vs veh, SNORA58 / RFU, C1orf63 / Fold change vs veh, C1orf63 / RFU, LRRFIP1 / Fold change vs veh, LRRFIP1 / RFU, NDUFAF7 / Fold change vs veh, NDUFAF7 / RFU, SLC12A2 / Fold change vs veh, SLC12A2 / RFU, IBTK / Fold change vs veh, IBTK / RFU, ESF1 / Fold change vs veh, ESF1 / Fold change vs veh, TMEM50B / RFU, TAOK1 / Fold change vs veh, TAOK1 / RFU, ACBD3 / Fold change vs veh, ACBD3 / RFU, TMA16 / Fold change vs veh, TMA16 / RFU, RWDD3 / Fold change vs veh, RWDD3 / RFU, BCAT1 / Fold change vs veh, BCAT1 / RFU, EDEM3 / Fold change vs veh, EDEM3 / RFU, TMEM33 / Fold change vs veh, TMEM33 / RFU, WDR75 / Fold change vs veh, WDR75 / RFU, AHCTF1 / Fold change vs veh, AHCTF1 / RFU, TFRC / Fold change vs veh, TFRC / RFU, ZDHHC17 / Fold change vs veh, ZDHHC17 / RFU, NOM1 / Fold change vs veh, NOM1 / RFU, ARL8B / Fold change vs veh, ARL8B / RFU, ZBTB11 / Fold change vs veh, ZBTB11 / RFU, TAMM41 / Fold change vs veh, TAMM41 / RFU, KIAA1704 /// LOC100996395 / Fold change vs veh, KIAA1704 /// LOC100996395 / RFU, ING1 / Fold change vs veh, ING1 / RFU, TRMT61B / Fold change vs veh, TRMT61B / RFU, FUBP3 / Fold change vs veh, FUBP3 / RFU, TP53 / Fold change vs veh, TP53 / RFU, TNKS2 / Fold change vs veh, TNKS2 / RFU, ZFP14 / Fold change vs veh, ZFP14 / RFU, ACTR2 / Fold change vs veh, ACTR2 / RFU, PPP3R1 / Fold change vs veh, PPP3R1 / RFU, PIK3R1 / Fold change vs veh, PIK3R1 / RFU, HNRNPA1 / Fold change vs veh, HNRNPA1 / RFU, RNF170 / Fold change vs veh, RNF170 / RFU, ZNF28 / Fold change vs veh, ZNF28 / RFU, RNGTT / Fold change vs veh, RNGTT / RFU, OGT / Fold change vs veh, OGT / RFU, BRD1 / Fold change vs veh, BRD1 / RFU, MARS / Fold change vs veh, MARS / RFU, ZNF655 / Fold change vs veh, ZNF655 / RFU, FAHD1 / Fold change vs veh, FAHD1 / RFU, BDP1 / Fold change vs veh, BDP1 / RFU, LRRCC1 / Fold change vs veh, LRRCC1 / RFU, ARID1A / Fold change vs veh, ARID1A / RFU, ZNF146 / Fold change vs veh, ZNF146 / RFU, ZNF330 / Fold change vs veh, ZNF330 / RFU, GPN3 / Fold change vs veh, GPN3 / RFU, C9orf123 / Fold change vs veh, C9orf123 / RFU, N4BP2L2 / Fold change vs veh, N4BP2L2 / RFU, ARFIP1 / Fold change vs veh, ARFIP1 / RFU, FAM179B / Fold change vs veh, FAM179B / RFU, BCL10 / Fold change vs veh, BCL10 / RFU, UHRF1BP1L / Fold change vs veh, UHRF1BP1L / RFU, BET1 / Fold change vs veh, BET1 / RFU, CNOT2 / Fold change vs veh, CNOT2 / RFU, ZNF268 / Fold change vs veh, ZNF268 / Fold change vs veh, ZNF507 / RFU, DGCR2 / Fold change vs veh, DGCR2 / RFU, WDSUB1 / Fold change vs veh, WDSUB1 / Fold change vs veh, HSP90B1 /// MIR3652 / RFU, ADSS / Fold change vs veh, ADSS / RFU, GK / Fold change vs veh, GK / RFU, ZNF148 / Fold change vs veh, ZNF148 / RFU, TAF9 / Fold change vs veh, TAF9 / RFU, SLC1A5 / Fold change vs veh, SLC1A5 / RFU, SLMO2 / Fold change vs veh, SLMO2 / RFU, ABCC4 / Fold change vs veh, ABCC4 / RFU, LOC101060439 /// RAP1B / Fold change vs veh, LOC101060439 /// RAP1B / RFU, RFX7 / Fold change vs veh, RFX7 / RFU, GTPBP10 / Fold change vs veh, GTPBP10 / RFU, CNEP1R1 / Fold change vs veh, CNEP1R1 / RFU, BIVM-ERCC5 /// ERCC5 / Fold change vs veh, BIVM-ERCC5 /// ERCC5 / RFU, ILF3 / Fold change vs veh, ILF3 / RFU 11762660_at / Fold change /veh 11762660_at / RFU VCAN (11757783_s_at) / Fold change /veh VCAN (11757783_s_at) / RFU DDX43 (11728927_at) / Fold change /veh DDX43 (11728927_at) / RFU KRT8 (11758188_x_at) / Fold change /veh KRT8 (11758188_x_at) / RFU NKD1 (11759106_at) / Fold change /veh NKD1 (11759106_at) / RFU SRD5A1 (11742802_a_at) / Fold change /veh SRD5A1 (11742802_a_at) / RFU TPSAB1 /// TPSB2 (11721975_s_at) / Fold change /veh TPSAB1 /// TPSB2 (11721975_s_at) / RFU GSTM3 (11746129_a_at) / Fold change /veh GSTM3 (11746129_a_at) / RFU IL23R (11737362_x_at) / Fold change /veh IL23R (11737362_x_at) / RFU TMEM51 (11727254_a_at) / Fold change /veh TMEM51 (11727254_a_at) / RFU PIWIL2 (11732686_x_at) / Fold change /veh PIWIL2 (11732686_x_at) / RFU ORM1 (11744905_x_at) / Fold change /veh ORM1 (11744905_x_at) / RFU CCDC152 (11743942_at) / Fold change /veh CCDC152 (11743942_at) / RFU ECM1 (11717891_a_at) / Fold change /veh ECM1 (11717891_a_at) / RFU IL23R (11748794_a_at) / Fold change /veh IL23R (11748794_a_at) / RFU TNFAIP8L3 (11732012_x_at) / Fold change /veh TNFAIP8L3 (11732012_x_at) / RFU MBOAT4 (11741988_at) / Fold change /veh MBOAT4 (11741988_at) / RFU 11764193_at / Fold change /veh 11764193_at / RFU TMEM53 (11763286_at) / Fold change /veh TMEM53 (11763286_at) / RFU MAGEB2 (11727129_at) / Fold change /veh MAGEB2 (11727129_at) / RFU TMEM200A (11744735_a_at) / Fold change /veh TMEM200A (11744735_a_at) / RFU CCDC152 (11751479_a_at) / Fold change /veh CCDC152 (11751479_a_at) / RFU FAM211A (11726209_a_at) / Fold change /veh FAM211A (11726209_a_at) / RFU RGS16 (11746705_a_at) / Fold change /veh RGS16 (11746705_a_at) / RFU VCAN (11755009_s_at) / Fold change /veh VCAN (11755009_s_at) / RFU RHOB (11743442_s_at) / Fold change /veh RHOB (11743442_s_at) / RFU RGS16 (11720943_a_at) / Fold change /veh RGS16 (11720943_a_at) / RFU RGS16 (11720944_at) / Fold change /veh RGS16 (11720944_at) / RFU, VPS4B / Fold change vs veh, VPS4B / RFU, CREB1 / Fold change vs veh, CREB1 / RFU, DNAJC13 / Fold change vs veh, DNAJC13 / RFU, GNAQ / Fold change vs veh, GNAQ / RFU, CDK5R1 / Fold change vs veh, CDK5R1 / RFU, ZRANB3 / Fold change vs veh, ZRANB3 / RFU, CUL4A / Fold change vs veh, CUL4A / RFU, CCNY / Fold change vs veh, CCNY / RFU, UFL1 / Fold change vs veh, UFL1 / RFU, COG3 / Fold change vs veh, COG3 / RFU, DIAPH2 / Fold change vs veh, DIAPH2 / RFU, SKA2 / Fold change vs veh, SKA2 / RFU, AFF3 / Fold change vs veh, AFF3 / RFU, LMF1 / Fold change vs veh, LMF1 / RFU, IPO11 / Fold change vs veh, IPO11 / RFU, DFFB / Fold change vs veh, DFFB / RFU, FOXP1 / Fold change vs veh, FOXP1 / RFU, CARD8 / Fold change vs veh, CARD8 / RFU, STRN3 / Fold change vs veh, STRN3 / RFU, ADK / Fold change vs veh, ADK / RFU, RASSF2 / Fold change vs veh, RASSF2 / RFU, WIPF1 / Fold change vs veh, WIPF1 / RFU, LARP1B / Fold change vs veh, LARP1B / RFU, RASA1 / Fold change vs veh, RASA1 / RFU, RB1 / Fold change vs veh, RB1 / RFU, PPFIA1 / Fold change vs veh, PPFIA1 / RFU, MAT2A / Fold change vs veh, MAT2A / RFU, CCT5 / Fold change vs veh, CCT5 / RFU, WDR92 / Fold change vs veh, WDR92 / RFU, CUX1 / Fold change vs veh, CUX1 / RFU, TTC7A / Fold change vs veh, TTC7A / RFU, TMEM135 / Fold change vs veh, TMEM135 / RFU, DEPTOR / Fold change vs veh, DEPTOR / RFU, CPM / Fold change vs veh, CPM / RFU, DNAJB6 / Fold change vs veh, DNAJB6 / RFU, CACNA2D3 / Fold change vs veh, CACNA2D3 / RFU, DTX4 / Fold change vs veh, DTX4 / RFU, TFCP2 / Fold change vs veh, TFCP2 / RFU, GMCL1 /// GMCL1P1 / Fold change vs veh, GMCL1 /// GMCL1P1 / RFU, AEBP2 / Fold change vs veh, AEBP2 / RFU, SNHG1 /// SNORD22 /// SNORD25 /// SNORD26 /// SNORD27 /// SNORD28 /// SNORD29 /// SNORD31 / Fold change vs veh, SNHG1 /// SNORD22 /// SNORD25 /// SNORD26 /// SNORD27 /// SNORD28 /// SNORD29 /// SNORD31 / Fold change (Aza/veh), C12orf56 (ProbeSet 11735607_a_at) / Fold change (ACY-1035/veh), C12orf56 (ProbeSet 11735607_a_at) / Fold change (Aza/veh), FGFR1OP (ProbeSet 11751329_s_at) / Fold change (ACY-1035/veh), FGFR1OP (ProbeSet 11751329_s_at) / Fold change (Aza/veh), VPS36 (ProbeSet 11739960_a_at) / Fold change (ACY-1035/veh), VPS36 (ProbeSet 11739960_a_at) / RFU SYPL1 (11715823_x_at) / Fold change /veh SYPL1 (11715823_x_at) / RFU IGFBP7 (11715501_s_at) / Fold change /veh IGFBP7 (11715501_s_at) / RFU REEP3 (11722064_at) / Fold change /veh REEP3 (11722064_at) / RFU IGLL1 (11728026_x_at) / Fold change /veh IGLL1 (11728026_x_at): dose or concentration left out as unconfirmed
Details: ProbeSet 11741199_a_at; LIST B

SMILES: Nc1ccc(-c2cccs2)cc1NC(=O)c1ccc2c(c1)cc(C1CC1)n2CCN1CCOCC1 [ACY-1035]
- RFU, LRRCC1: 56.24 RFU
